Measured values taken from ChEMBL document CHEMBL5678816, “A Next-Generation TRK Kinase Inhibitor Overcomes Acquired Resistance to Prior TRK Kinase Inhibition in Patients with TRK Fusion-Positive Solid Tumors” (Cancer Discov, 2017).
Activity calls are given as the source filed them. The calls are words filed in the database; no cut-off is given here.

Legend:
[1] = biological target: Serine/threonine-protein kinase mTOR (Homo sapiens) (UniProt P42345); assay: Inhibition of MTOR (unknown origin) at 1 uM in presence of ATP relative to control; values are per cent of control
KM12 = assay: Inhibition of cell proliferation in TPM3-NTRK1 fusion positive human KM12 cells incubated for 72 hrs by DAPI staining based analysis; format: functional; conditions: KM12, 72 h
A101D = assay: Inhibition of cell proliferation in human A101D cells upto 10 umol/L incubated for 72 hrs by DAPI staining based analysis; format: functional; conditions: dose <= 10.0 µmol/L
[2] = biological target: Protein kinase C epsilon type (Homo sapiens) (UniProt Q02156); assay: Inhibition of PKCepsilon (unknown origin) at 1 uM in presence of ATP relative to control; values are per cent of control
[3] = biological target: Serine/threonine-protein kinase pim-2 (Homo sapiens) (UniProt Q9P1W9); assay: Inhibition of Pim-2 (unknown origin) at 1 uM in presence of ATP relative to control; values are per cent of control
Serine/threonine-protein kinase pim-2 (Homo sapiens), sequence (Q9P1W9 whole entry, looked up): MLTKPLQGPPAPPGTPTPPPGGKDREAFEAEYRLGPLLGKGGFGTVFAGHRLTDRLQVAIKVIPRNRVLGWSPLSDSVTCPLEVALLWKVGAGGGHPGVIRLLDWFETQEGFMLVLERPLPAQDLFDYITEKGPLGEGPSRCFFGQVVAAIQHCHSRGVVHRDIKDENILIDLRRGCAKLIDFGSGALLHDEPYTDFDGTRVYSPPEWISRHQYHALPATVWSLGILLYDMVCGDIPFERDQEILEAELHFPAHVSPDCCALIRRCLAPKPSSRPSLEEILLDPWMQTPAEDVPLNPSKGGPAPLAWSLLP

[4] = biological target: Mitogen-activated protein kinase 12 (Homo sapiens) (UniProt P53778); assay: Inhibition of p38gamma (unknown origin) at 1 uM in presence of ATP relative to control; values are per cent of control
Homo sapiens = organism: Homo sapiens; assay: Inhibition of Abl-P (unknown origin) at 1 uM in presence of ATP relative to control; values are per cent of control
[5] = biological target: Vascular endothelial growth factor receptor 3 (Homo sapiens) (UniProt P35916); assay: Inhibition of FLt4 (unknown origin) at 1 uM in presence of ATP relative to control; values are per cent of control
[6] = biological target: Tyrosine-protein kinase SYK (Homo sapiens) (UniProt P43405); assay: Inhibition of Syk (unknown origin) at 1 uM in presence of ATP relative to control; values are per cent of control
[7] = biological target: Tyrosine-protein kinase Mer (Homo sapiens) (UniProt Q12866); assay: Inhibition of Mer (unknown origin) at 1 uM in presence of ATP relative to control; values are per cent of control
[8] = biological target: Glycogen synthase kinase-3 alpha (Homo sapiens) (UniProt P49840); assay: Inhibition of GSK3alpha (unknown origin) at 1 uM in presence of ATP relative to control; values are per cent of control
Glycogen synthase kinase-3 alpha (Homo sapiens), sequence (P49840 2-483 limits assumed): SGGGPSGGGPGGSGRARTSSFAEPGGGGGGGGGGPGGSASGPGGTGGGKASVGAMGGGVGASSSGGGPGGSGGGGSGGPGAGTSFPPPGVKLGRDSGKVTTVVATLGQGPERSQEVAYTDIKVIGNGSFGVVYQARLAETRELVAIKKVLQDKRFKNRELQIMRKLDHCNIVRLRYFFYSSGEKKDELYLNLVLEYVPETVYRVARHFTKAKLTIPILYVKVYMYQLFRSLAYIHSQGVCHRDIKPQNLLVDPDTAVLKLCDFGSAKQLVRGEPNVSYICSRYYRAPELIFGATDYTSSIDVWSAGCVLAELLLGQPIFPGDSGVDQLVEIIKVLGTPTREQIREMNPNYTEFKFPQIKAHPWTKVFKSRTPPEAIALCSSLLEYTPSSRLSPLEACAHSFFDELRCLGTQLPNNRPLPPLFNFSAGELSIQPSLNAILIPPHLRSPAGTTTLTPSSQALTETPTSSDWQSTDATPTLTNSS

[9] = biological target: Ephrin type-A receptor 2 (Homo sapiens) (UniProt P29317); assay: Inhibition of EphA2 (unknown origin) at 1 uM in presence of ATP relative to control; values are per cent of control
[10] = biological target: Dual specificity protein kinase CLK2 (Homo sapiens) (UniProt P49760); assay: Inhibition of CLK2 (unknown origin) at 1 uM in presence of ATP relative to control; values are per cent of control
[11] = biological target: Death-associated protein kinase 3 (Homo sapiens) (UniProt O43293); assay: Inhibition of DAPK3 (unknown origin) at 1 uM in presence of ATP relative to control; values are per cent of control
[12] = biological target: Protein kinase C delta type (Homo sapiens) (UniProt Q05655); assay: Inhibition of PKCdelta (unknown origin) at 1 uM in presence of ATP relative to control; values are per cent of control
[13] = biological target: Serine/threonine-protein kinase PLK3 (Homo sapiens) (UniProt Q9H4B4); assay: Inhibition of Plk3 (unknown origin) at 1 uM in presence of ATP relative to control; values are per cent of control
Serine/threonine-protein kinase PLK3 (Homo sapiens), sequence (Q9H4B4 whole entry, looked up): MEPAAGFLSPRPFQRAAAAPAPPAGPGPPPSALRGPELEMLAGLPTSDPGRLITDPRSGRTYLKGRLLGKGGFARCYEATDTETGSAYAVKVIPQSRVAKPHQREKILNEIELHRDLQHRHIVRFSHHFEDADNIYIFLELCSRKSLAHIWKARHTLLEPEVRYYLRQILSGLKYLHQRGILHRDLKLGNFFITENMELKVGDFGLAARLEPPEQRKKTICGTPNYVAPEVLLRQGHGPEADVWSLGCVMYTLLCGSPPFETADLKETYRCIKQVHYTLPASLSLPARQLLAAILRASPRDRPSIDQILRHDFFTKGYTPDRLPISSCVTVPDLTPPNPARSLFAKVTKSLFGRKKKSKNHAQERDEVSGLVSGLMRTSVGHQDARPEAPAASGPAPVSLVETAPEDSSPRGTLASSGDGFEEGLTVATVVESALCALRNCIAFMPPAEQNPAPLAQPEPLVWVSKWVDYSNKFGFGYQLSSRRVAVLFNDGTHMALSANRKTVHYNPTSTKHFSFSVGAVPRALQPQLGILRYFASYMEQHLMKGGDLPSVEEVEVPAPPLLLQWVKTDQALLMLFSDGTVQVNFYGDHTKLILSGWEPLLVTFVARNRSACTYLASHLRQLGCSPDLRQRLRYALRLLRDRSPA

[14] = Cmin in adult patient with recurrent LMNA-NTRK1 rearranged colorectal cancer at 100 mg administered twice a day as powder-in-capsule or liquid formulation for 22 day and measured 10 hrs post dose by LC-MS/MS analysis; format: ADME; conditions: human, in vivo, po, read-out: Cmin
[15] = biological target: Tyrosine-protein kinase receptor TYRO3 (Homo sapiens) (UniProt Q06418); assay: Inhibition of Rse (unknown origin) at 1 uM in presence of ATP relative to control; values are per cent of control
[16] = biological target: Serine/threonine-protein kinase MRCK beta (Homo sapiens) (UniProt Q9Y5S2); assay: Inhibition of MRCKbeta (unknown origin) at 1 uM in presence of ATP relative to control; values are per cent of control
TF-1 = assay: Inhibition of cell proliferation in human TF-1 cells upto 10 umol/L incubated for 72 hrs by DAPI staining based analysis; format: functional; conditions: dose <= 10.0 µmol/L
[17] = biological target: Homeodomain-interacting protein kinase 2 (Homo sapiens) (UniProt Q9H2X6); assay: Inhibition of HIPK2 (unknown origin) at 1 uM in presence of ATP relative to control; values are per cent of control
Homeodomain-interacting protein kinase 2 (Homo sapiens), sequence (Q9H2X6 whole entry, looked up): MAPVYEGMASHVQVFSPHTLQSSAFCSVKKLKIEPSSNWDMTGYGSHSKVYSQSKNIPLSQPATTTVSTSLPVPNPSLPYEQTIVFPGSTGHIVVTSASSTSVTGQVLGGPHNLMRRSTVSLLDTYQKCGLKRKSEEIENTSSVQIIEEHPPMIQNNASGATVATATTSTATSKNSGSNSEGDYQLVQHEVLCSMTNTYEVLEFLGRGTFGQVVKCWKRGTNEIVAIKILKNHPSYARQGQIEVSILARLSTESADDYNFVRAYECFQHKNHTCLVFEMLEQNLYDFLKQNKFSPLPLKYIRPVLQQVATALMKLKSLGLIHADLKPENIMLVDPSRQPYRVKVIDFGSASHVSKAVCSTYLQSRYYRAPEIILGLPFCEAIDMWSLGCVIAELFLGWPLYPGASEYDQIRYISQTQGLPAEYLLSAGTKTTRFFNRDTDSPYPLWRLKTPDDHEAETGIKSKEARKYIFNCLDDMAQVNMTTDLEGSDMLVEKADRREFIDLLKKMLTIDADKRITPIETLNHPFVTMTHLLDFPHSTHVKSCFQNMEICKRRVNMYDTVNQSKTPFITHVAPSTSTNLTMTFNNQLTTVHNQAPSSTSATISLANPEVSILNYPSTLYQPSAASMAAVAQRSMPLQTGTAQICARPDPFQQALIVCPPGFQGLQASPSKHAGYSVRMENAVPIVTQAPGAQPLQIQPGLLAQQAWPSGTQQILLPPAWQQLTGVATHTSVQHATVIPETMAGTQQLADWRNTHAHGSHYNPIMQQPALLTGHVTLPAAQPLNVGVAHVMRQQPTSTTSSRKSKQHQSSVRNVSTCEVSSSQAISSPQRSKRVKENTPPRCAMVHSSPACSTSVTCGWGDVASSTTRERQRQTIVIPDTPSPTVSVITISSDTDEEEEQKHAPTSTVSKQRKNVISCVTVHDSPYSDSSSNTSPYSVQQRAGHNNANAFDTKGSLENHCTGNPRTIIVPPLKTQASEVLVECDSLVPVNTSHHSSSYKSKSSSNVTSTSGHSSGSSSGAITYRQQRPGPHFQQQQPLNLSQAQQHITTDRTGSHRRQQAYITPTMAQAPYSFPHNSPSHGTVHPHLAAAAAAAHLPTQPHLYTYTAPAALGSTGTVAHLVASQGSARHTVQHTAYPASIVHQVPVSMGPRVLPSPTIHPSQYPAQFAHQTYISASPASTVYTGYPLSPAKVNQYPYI

[18] = biological target: Serine/threonine-protein kinase PAK 4 (Homo sapiens) (UniProt O96013); assay: Inhibition of PAK4 (unknown origin) at 1 uM in presence of ATP relative to control; values are per cent of control
Serine/threonine-protein kinase PAK 4 (Homo sapiens), sequence (O96013 whole entry, looked up): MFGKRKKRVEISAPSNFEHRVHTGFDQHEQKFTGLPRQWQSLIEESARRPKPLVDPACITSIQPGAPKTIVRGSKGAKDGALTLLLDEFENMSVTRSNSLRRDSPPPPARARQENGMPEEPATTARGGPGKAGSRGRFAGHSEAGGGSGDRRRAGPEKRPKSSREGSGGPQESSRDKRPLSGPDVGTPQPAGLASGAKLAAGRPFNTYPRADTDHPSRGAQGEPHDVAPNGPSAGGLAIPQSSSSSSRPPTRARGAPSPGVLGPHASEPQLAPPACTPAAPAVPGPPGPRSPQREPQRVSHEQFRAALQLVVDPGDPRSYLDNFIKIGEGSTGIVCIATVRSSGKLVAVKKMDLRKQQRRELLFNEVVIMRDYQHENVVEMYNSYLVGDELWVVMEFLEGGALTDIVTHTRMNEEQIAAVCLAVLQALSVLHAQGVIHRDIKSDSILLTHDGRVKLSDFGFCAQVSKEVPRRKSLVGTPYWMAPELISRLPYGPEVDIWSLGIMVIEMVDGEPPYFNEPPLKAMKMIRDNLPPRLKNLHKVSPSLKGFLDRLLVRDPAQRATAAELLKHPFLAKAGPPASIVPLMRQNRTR

[19] = biological target: RAC-gamma serine/threonine-protein kinase (Homo sapiens) (UniProt Q9Y243); assay: Inhibition of AKT3 (unknown origin) at 1 uM in presence of ATP relative to control; values are per cent of control
[20] = biological target: Receptor-type tyrosine-protein kinase FLT3 (Homo sapiens) (UniProt P36888); assay: Inhibition of FLt3 (unknown origin) at 1 uM in presence of ATP relative to control; values are per cent of control
Receptor-type tyrosine-protein kinase FLT3 (Homo sapiens), sequence (P36888 whole entry, the tested form may be a part): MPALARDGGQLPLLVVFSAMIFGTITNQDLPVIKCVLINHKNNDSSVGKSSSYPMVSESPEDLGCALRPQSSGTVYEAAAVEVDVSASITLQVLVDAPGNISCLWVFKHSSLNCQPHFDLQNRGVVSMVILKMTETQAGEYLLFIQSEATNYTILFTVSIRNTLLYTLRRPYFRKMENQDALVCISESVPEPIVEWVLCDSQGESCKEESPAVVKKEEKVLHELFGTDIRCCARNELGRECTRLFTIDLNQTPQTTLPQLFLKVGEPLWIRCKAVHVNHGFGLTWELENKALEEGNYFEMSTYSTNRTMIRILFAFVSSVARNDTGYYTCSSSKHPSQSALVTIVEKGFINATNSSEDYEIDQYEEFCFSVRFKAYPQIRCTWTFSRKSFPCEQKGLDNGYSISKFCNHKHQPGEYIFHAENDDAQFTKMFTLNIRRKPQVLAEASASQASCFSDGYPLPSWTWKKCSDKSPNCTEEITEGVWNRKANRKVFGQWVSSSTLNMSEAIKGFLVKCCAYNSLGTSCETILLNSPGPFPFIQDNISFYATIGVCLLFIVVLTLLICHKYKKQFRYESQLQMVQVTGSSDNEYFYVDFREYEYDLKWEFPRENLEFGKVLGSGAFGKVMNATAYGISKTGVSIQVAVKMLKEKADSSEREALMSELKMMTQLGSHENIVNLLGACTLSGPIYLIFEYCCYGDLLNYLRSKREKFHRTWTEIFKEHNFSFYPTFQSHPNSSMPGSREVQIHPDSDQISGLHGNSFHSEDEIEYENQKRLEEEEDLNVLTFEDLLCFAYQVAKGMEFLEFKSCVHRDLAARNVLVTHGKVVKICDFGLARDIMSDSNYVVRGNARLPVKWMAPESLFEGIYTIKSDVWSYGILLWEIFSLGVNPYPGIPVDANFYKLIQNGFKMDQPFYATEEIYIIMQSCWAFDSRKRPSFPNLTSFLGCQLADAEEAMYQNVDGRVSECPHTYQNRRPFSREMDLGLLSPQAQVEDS

[21] = Inhibition of cell proliferation in MPRIP-NTRK1 fusion positive human CUTO-3 cells incubated for 72 hrs by DAPI staining based analysis; format: functional; conditions: CUTO-3, 72 h
MG-63 = assay: Inhibition of cell proliferation in human MG-63 cells upto 10 umol/L incubated for 72 hrs by DAPI staining based analysis; format: functional; conditions: dose <= 10.0 µmol/L
[22] = biological target: Protein kinase C zeta type (Homo sapiens) (UniProt Q05513); assay: Inhibition of PKCzeta (unknown origin) at 1 uM in presence of ATP relative to control; values are per cent of control
Protein kinase C zeta type (Homo sapiens), sequence (Q05513 whole entry): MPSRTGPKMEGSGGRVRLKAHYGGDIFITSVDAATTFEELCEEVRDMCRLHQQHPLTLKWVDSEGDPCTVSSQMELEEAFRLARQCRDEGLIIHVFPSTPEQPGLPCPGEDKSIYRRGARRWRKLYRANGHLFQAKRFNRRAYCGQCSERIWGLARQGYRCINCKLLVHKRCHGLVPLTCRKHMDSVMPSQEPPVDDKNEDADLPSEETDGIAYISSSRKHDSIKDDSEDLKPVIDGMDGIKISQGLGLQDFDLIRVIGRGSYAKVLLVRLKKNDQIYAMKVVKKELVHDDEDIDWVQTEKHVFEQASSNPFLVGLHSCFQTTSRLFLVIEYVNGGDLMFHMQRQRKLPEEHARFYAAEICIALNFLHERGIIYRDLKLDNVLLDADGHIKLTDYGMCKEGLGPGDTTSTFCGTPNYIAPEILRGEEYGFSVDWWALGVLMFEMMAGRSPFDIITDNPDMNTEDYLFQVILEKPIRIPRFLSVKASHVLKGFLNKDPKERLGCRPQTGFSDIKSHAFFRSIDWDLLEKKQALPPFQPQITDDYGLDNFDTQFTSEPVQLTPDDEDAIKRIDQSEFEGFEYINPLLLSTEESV

[23] = biological target: Vascular endothelial growth factor receptor 1 (Homo sapiens) (UniProt P17948); assay: Inhibition of FLt1 (unknown origin) at 1 uM in presence of ATP relative to control; values are per cent of control
HT-29 = assay: Inhibition of cell proliferation in human HT-29 cells upto 10 umol/L incubated for 72 hrs by DAPI staining based analysis; format: functional; conditions: dose <= 10.0 µmol/L

residual activity [1]: 95% | residual activity [2]: 102% | residual activity [3]: 120% | residual activity [4]: 104% | residual activity (Homo sapiens): 87% | residual activity [5]: 90% | residual activity [6]: 114% | residual activity [7]: 117% | residual activity [8]: 117% | residual activity [9]: 79.5% | residual activity [10]: 96.5% | residual activity [12]: 108% | residual activity [13]: 93.5% | concentration at 538 h [14]: 14.7 ng/mL | residual activity [15]: 110% | residual activity [16]: 128% | residual activity [17]: 113% | residual activity [18]: 101% | residual activity [19]: 104% | residual activity [20]: 85.5% | residual activity [22]: 106% | residual activity [23]: 101%
SMILES: C[C@@H]1CCc2ncc(F)cc2[C@H]2CCCN2c2ccn3ncc(c3n2)C(=O)N1 [SELITRECTINIB]
IC50 (KM12): ≤ 5 nM | inhibition (A101D): inactive | residual activity [11]: 120% | inhibition (TF-1): inactive | IC50 [21]: ≤ 5 nM | inhibition (MG-63): inactive | inhibition (HT-29): inactive
